Source: US20260285850A1, “SUBSTITUTED OXAZOLIDINONES AND IMIDAZOLINONES AS HERBICIDES” (FMC CORPORATION, priority 2023, published 2026)

Columns and labels:
Type in all cases: in vivo
soybean (Glycine max) [1] = assay: Test A preemergence soil spray, visual injury rating 0-100; details: 10 days
Summary of the method: (§1)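 Compound in a non-phytotoxic, surfactant-containing solvent is applied either as a directed soil spray before seedlings emerge or onto emerged plants 2-10 cm tall; pots hold a loam-sand blend. Plants grow 10 days under greenhouse conditions and are rated by eye against untreated controls (0 no effect, 100 complete control).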

[2] = system: green foxtail (Setaria viridis); assay: as above; details: 10 days
Summary of the method: as §1

[3] = system: blackgrass (Alopecurus myosuroides); assay: as above; details: 10 days
Summary of the method: as §1

corn (Zea mays) [4] = assay: as above; details: 10 days
Summary of the method: as §1

[5] = system: ragweed (common ragweed, Ambrosia artemisiifolia); assay: as above; details: 10 days
Summary of the method: as §1

[6] = system: barnyardgrass (Echinochloa crus-galli); assay: as above; details: 10 days
Summary of the method: as §1

[7] = system: wheat (Triticum aestivum); assay: as above; details: 10 days
Summary of the method: as §1

[8] = system: oat, wild (wild oat, Avena fatua); assay: as above; details: 10 days
Summary of the method: as §1

[9] = system: ryegrass, Italian (italian ryegrass, Lolium multiflorum); assay: as above; details: 10 days
Summary of the method: as §1

[10] = system: palmer (palmer amaranth, palmer pigweed, Amaranthus palmeri); assay: as above; details: 10 days
Summary of the method: as §1

kochia (Bassia scoparia) [11] = assay: as above; details: 10 days
Summary of the method: as §1

[12] = system: ducksalad (Heteranthera limosa); assay: Test B flooded paddy test, visual plant response rating 0-100; details: 250 g ai/ha, Flood, applied to paddy water, evaluated after 13 days
Summary of the method: (§2)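 Visual scores versus untreated controls were recorded 13 days after treatment of greenhouse-held plants. At the 2-leaf stage, pots were flooded 3 cm above the soil surface and compounds added straight to the water.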

[13] = system: barnyardgrass (Echinochloa crusgalli); assay: as above; details: 250 g ai/ha, Flood, applied to paddy water, evaluated after 13 days
Summary of the method: as §2

rice (Oryza sativa) = assay: as above; details: 250 g ai/ha, Flood, applied to paddy water, evaluated after 13 days
Summary of the method: as §2

[14] = system: sedge, umbrella (small-flower umbrella sedge, Cyperus difformis); assay: as above; details: 250 g ai/ha, Flood, applied to paddy water, evaluated after 13 days
Summary of the method: as §2

soybean (Glycine max) [15] = assay: Test A postemergence application, visual injury rating 0-100
Summary of the method: as §1

[16] = system: green foxtail (Setaria viridis); assay: as above
Summary of the method: as §1

[17] = system: blackgrass (Alopecurus myosuroides); assay: as above
Summary of the method: as §1

corn (Zea mays) [18] = assay: as above
Summary of the method: as §1

[19] = system: ragweed (common ragweed, Ambrosia artemisiifolia); assay: as above
Summary of the method: as §1

[20] = system: barnyardgrass (Echinochloa crus-galli); assay: as above
Summary of the method: as §1

[21] = system: wheat (Triticum aestivum); assay: as above
Summary of the method: as §1

[22] = system: oat, wild (wild oat, Avena fatua); assay: as above
Summary of the method: as §1

[23] = system: ryegrass, Italian (italian ryegrass, Lolium multiflorum); assay: as above
Summary of the method: as §1

[24] = system: horseweed (Erigeron canadensis); assay: as above
Summary of the method: as §1

[25] = system: palmer (palmer amaranth, palmer pigweed, Amaranthus palmeri); assay: as above
Summary of the method: as §1

kochia (Bassia scoparia) [26] = assay: as above
Summary of the method: as §1

[27] = system: galium (catchweed bedstraw, Galium aparine); assay: as above; details: Postemergence, 16 g ai/ha, greenhouse 10 days; 0 no effect, 100 complete control
Summary of the method: as §1

[28] = 62 g ai/ha, 0 = no effect, 100 = complete control
[29] = 62 g ai/ha, postemergence, 10 days, 0 = no effect, 100 = complete control
[30] = Postemergence, 16 g ai/ha, greenhouse 10 days, 0 no effect, 100 complete control

## CC1(C(=O)NC2CC=C(C(=O)OCC(F)F)C2)CN(c2cc(F)cc(F)c2)C(=O)O1 (stereo not drawn) [Compound 152]
Soybean (Glycine max) [1]; 16 g ai/ha, 0 to 100 scale
  Soybean plant response rating: 0
Soybean (Glycine max) [1]; [28]
  Soybean plant response rating (0-100): 60
[2]; 16 g ai/ha, 0 to 100 scale
  Foxtail, Green plant response rating: 30
[2]; [28]
  Foxtail, Green plant response rating (0-100): 100
[3]; 16 g ai/ha, 0 to 100 scale
  Blackgrass plant response rating: 0
[3]; [28]
  Blackgrass plant response rating (0-100): 0
Corn (Zea mays) [4]; 16 g ai/ha, 0 to 100 scale
  Corn plant response rating: 10
Corn (Zea mays) [4]; [28]
  Corn plant response rating (0-100): 60
[5]; 16 g ai/ha, 0 to 100 scale
  Ragweed plant response rating: 0
[5]; [28]
  Ragweed plant response rating (0-100): 30
[6]; 16 g ai/ha, 0 to 100 scale
  Barnyardgrass plant response rating: 30
[6]; [28]
  Barnyardgrass plant response rating (0-100): 100
[7]; 16 g ai/ha, 0 to 100 scale
  Wheat plant response rating: 70
[7]; [28]
  Wheat plant response rating (0-100): 90
[8]; 16 g ai/ha, 0 to 100 scale
  Oat, Wild plant response rating: 0
[8]; [28]
  Oat, Wild plant response rating (0-100): 70
[9]; 16 g ai/ha, 0 to 100 scale
  Ryegrass, Italian plant response rating: 70
[9]; [28]
  Ryegrass, Italian plant response rating (0-100): 90
[10]; 16 g ai/ha, 0 to 100 scale
  Pigweed, Palmer plant response rating: 0
[10]; [28]
  Pigweed, Palmer plant response rating (0-100): 90
Kochia (Bassia scoparia) [11]; 16 g ai/ha, 0 to 100 scale
  Kochia plant response rating: 90
Kochia (Bassia scoparia) [11]; [28]
  Kochia plant response rating (0-100): 90
[12]
  Plant response rating, Ducksalad (0 to 100 scale, 0 is no effect and 100 is complete control): 80
[13]
  Plant response rating, Barnyardgrass (0 to 100 scale, 0 is no effect and 100 is complete control): 90
Rice (Oryza sativa)
  Plant response rating, Rice (0 to 100 scale, 0 is no effect and 100 is complete control): 85
[14]
  Plant response rating, Sedge, Umbrella (0 to 100 scale, 0 is no effect and 100 is complete control): 90
Soybean (Glycine max) [15]; [29]
  Soybean plant response rating (0-100): 80
Soybean (Glycine max) [15]; [30]
  Soybean plant response rating (0 to 100 scale): 60
[16]; [29]
  Foxtail, Green plant response rating (0-100): 90
[16]; [30]
  Foxtail, Green plant response rating (0 to 100 scale): 90
[17]; [29]
  Blackgrass plant response rating (0-100): 100
[17]; [30]
  Blackgrass plant response rating (0 to 100 scale): 70
Corn (Zea mays) [18]; [29]
  Corn plant response rating (0-100): 100
Corn (Zea mays) [18]; [30]
  Corn plant response rating (0 to 100 scale): 100
[19]; [29]
  Ragweed plant response rating (0-100): 50
[19]; [30]
  Ragweed plant response rating (0 to 100 scale): 20
[20]; [29]
  Barnyardgrass plant response rating (0-100): 100
[20]; [30]
  Barnyardgrass plant response rating (0 to 100 scale): 100
[21]; [29]
  Wheat plant response rating (0-100): 90
[21]; [30]
  Wheat plant response rating (0 to 100 scale): 80
[22]; [29]
  Oat, Wild plant response rating (0-100): 90
[22]; [30]
  Oat, Wild plant response rating (0 to 100 scale): 80
[23]; [29]
  Ryegrass, Italian plant response rating (0-100): 80
[23]; [30]
  Ryegrass, Italian plant response rating (0 to 100 scale): 70
[24]; [29]
  Horseweed plant response rating (0-100): 70
[24]; [30]
  Horseweed plant response rating (0 to 100 scale): 30
[25]; [29]
  Pigweed, Palmer plant response rating (0-100): 90
[25]; [30]
  Pigweed, Palmer plant response rating (0 to 100 scale): 60
Kochia (Bassia scoparia) [26]; [29]
  Kochia plant response rating (0-100): 90
Kochia (Bassia scoparia) [26]; [30]
  Kochia plant response rating (0 to 100 scale): 90
[27]
  Galium plant response rating (0 to 100 scale): 70
